Each block holds one molecule with its values, some of them ahead of it.
Legend:
MCF7 [1] = experiment: Induction of cell cycle arrest in human MCF7 cells assessed as accumulation at G0/G1 phase by PI-staining based flow cytometry (reference value: 40.8%); assay type: functional
MCF7 [2] = experiment: cells; assay type: functional, cell-based; settings: Homo sapiens, MCF7, 48 h
Description: Cytotoxicity against human MCF7 cells assessed as inhibition of cell growth measured after 48 hrs by MTT assay

HCT-116 [3] = experiment: Induction of cell cycle arrest in human HCT-116 cells assessed as accumulation at G2/M phase by PI-staining based flow cytometry (reference value: 29.2%); assay type: functional
HCT-116 [4] = experiment: Induction of apoptosis in human HCT-116 cells assessed as fold increase in caspases-3 expression by ELISA assay; assay type: functional
HepG2 [5] = experiment: Induction of apoptosis in human HepG2 cells assessed as fold increase in BAX expression by ELISA assay; assay type: functional
HeLa = experiment: cells; assay type: functional, cell-based; settings: Homo sapiens, 48 h
Description: Cytotoxicity against human HeLa cells assessed as inhibition of cell growth measured after 48 hrs by MTT assay

HepG2 [6] = experiment: cells; assay type: functional, cell-based; settings: Homo sapiens, HepG2, 48 h
Description: Cytotoxicity against human HepG2 cells assessed as inhibition of cell growth measured after 48 hrs by MTT assay

MCF7 [7] = experiment: Induction of apoptosis in human MCF7 cells assessed as fold increase in caspases-3 expression by ELISA assay; assay type: functional
HepG2 [8] = experiment: Induction of cell cycle arrest in human HepG2 cells assessed as accumulation at G2/M phase by PI-staining based flow cytometry (reference value: 41.5%); assay type: functional
HCT-116 [9] = experiment: Induction of apoptosis in human HCT-116 cells assessed as fold increase in caspases-7 expression by ELISA assay; assay type: functional
HepG2 [10] = experiment: Induction of cell cycle arrest in human HepG2 cells assessed as accumulation at sub-G1 phase by PI-staining based flow cytometry (reference value: 12.6%); assay type: functional
HCT-116 [11] = experiment: Induction of apoptosis in human HCT-116 cells assessed as fold increase in BAX expression by ELISA assay; assay type: functional
Histone deacetylase 8 = target: T1, Histone deacetylase 8 (Homo sapiens, UniProt Q9BY41); experiment: Inhibition of HDAC8 (unknown origin) by ELISA assay
T1 sequence (Q9BY41 whole entry): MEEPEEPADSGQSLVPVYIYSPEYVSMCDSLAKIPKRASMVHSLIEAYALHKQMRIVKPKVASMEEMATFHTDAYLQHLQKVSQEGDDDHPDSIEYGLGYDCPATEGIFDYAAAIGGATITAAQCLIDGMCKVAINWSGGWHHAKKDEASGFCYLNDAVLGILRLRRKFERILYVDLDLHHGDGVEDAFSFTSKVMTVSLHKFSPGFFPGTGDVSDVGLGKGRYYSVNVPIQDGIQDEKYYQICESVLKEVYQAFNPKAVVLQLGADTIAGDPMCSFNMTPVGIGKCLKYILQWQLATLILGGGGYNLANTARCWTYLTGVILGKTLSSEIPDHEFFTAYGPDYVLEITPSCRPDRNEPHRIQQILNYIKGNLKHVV

HepG2 [12] = experiment: Induction of apoptosis in human HepG2 cells assessed as fold increase in caspases-3 expression by ELISA assay; assay type: functional
HCT-116 [13] = experiment: Induction of cell cycle arrest in human HCT-116 cells assessed as accumulation at sub-G1 phase by PI-staining based flow cytometry (reference value: 12%); assay type: functional
MCF7 [14] = experiment: Induction of cell cycle arrest in human MCF7 cells assessed as accumulation at S phase by PI-staining based flow cytometry (reference value: 6.3%); assay type: functional
HepG2 [15] = experiment: Induction of cell cycle arrest in human HepG2 cells assessed as accumulation at G0/G1 phase by PI-staining based flow cytometry (reference value: 35.2%); assay type: functional
HCT-116 [16] = experiment: cells; assay type: functional, cell-based; settings: Homo sapiens, HCT-116, 48 h
Description: Cytotoxicity against human HCT-116 cells assessed as inhibition of cell growth measured after 48 hrs by MTT assay

Histone deacetylase 1 = Histone deacetylase 1 (Homo sapiens, UniProt Q13547); experiment: Inhibition of HDAC1 (unknown origin) by ELISA assay
Histone deacetylase 1, sequence (Q13547 whole entry): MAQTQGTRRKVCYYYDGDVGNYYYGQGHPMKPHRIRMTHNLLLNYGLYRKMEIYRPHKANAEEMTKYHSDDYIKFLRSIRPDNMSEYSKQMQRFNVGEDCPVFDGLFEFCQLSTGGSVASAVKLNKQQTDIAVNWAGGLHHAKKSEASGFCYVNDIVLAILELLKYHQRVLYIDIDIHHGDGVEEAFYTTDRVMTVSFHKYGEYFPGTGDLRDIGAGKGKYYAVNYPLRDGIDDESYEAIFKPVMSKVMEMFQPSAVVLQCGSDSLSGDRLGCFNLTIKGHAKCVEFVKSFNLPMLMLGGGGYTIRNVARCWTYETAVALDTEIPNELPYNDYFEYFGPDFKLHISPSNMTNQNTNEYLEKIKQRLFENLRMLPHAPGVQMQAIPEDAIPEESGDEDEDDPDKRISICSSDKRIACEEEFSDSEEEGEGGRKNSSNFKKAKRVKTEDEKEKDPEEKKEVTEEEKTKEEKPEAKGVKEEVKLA

HepG2 [17] = experiment: Induction of apoptosis in human HepG2 cells assessed as fold increase in caspases-7 expression by ELISA assay; assay type: functional
MCF7 [18] = experiment: Induction of cell cycle arrest in human MCF7 cells assessed as accumulation at sub-G1 phase by PI-staining based flow cytometry (reference value: 13.2%); assay type: functional
[19] = target: T2, Protein deacetylase HDAC6 (Homo sapiens, UniProt Q9UBN7); experiment: Inhibition of HDAC6 (unknown origin) by ELISA assay
T2 sequence (Q9UBN7 whole entry): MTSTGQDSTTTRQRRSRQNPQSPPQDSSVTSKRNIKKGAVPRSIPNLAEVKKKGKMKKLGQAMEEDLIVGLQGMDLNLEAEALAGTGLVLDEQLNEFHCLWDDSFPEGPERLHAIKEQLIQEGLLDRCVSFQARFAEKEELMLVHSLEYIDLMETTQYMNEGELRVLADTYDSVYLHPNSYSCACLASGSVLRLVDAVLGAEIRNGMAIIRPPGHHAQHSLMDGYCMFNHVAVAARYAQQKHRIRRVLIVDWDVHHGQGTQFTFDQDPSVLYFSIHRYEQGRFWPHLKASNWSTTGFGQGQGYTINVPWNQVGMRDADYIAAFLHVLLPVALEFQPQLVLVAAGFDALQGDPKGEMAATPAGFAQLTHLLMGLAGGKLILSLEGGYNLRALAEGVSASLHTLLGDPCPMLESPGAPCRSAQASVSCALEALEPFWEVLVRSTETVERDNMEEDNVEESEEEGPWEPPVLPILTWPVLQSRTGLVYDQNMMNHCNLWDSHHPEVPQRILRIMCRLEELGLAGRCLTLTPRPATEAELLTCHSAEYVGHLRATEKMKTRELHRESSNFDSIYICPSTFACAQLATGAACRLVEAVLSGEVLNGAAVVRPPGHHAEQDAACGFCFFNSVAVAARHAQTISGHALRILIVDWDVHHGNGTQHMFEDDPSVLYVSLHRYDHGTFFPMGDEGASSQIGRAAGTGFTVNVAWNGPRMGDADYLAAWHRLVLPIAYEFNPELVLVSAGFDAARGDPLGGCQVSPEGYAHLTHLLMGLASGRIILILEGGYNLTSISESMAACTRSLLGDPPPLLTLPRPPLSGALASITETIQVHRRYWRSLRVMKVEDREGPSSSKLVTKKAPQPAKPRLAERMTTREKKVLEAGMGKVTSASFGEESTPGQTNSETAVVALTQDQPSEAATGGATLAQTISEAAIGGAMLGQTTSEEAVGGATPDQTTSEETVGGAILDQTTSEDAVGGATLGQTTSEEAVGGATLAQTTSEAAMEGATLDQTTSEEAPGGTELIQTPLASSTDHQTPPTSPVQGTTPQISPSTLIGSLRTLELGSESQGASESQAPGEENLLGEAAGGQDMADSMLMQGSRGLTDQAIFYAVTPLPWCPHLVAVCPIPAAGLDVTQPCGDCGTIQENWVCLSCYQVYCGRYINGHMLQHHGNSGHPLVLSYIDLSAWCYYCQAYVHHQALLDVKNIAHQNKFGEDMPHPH

HepG2 [20] = experiment: Induction of cell cycle arrest in human HepG2 cells assessed as accumulation at S phase by PI-staining based flow cytometry (reference value: 5.8%); assay type: functional
Histone deacetylase 2 = Histone deacetylase 2 (Homo sapiens, UniProt Q92769); experiment: Inhibition of HDAC2 (unknown origin) by ELISA assay
Histone deacetylase 2, sequence (Q92769 whole entry): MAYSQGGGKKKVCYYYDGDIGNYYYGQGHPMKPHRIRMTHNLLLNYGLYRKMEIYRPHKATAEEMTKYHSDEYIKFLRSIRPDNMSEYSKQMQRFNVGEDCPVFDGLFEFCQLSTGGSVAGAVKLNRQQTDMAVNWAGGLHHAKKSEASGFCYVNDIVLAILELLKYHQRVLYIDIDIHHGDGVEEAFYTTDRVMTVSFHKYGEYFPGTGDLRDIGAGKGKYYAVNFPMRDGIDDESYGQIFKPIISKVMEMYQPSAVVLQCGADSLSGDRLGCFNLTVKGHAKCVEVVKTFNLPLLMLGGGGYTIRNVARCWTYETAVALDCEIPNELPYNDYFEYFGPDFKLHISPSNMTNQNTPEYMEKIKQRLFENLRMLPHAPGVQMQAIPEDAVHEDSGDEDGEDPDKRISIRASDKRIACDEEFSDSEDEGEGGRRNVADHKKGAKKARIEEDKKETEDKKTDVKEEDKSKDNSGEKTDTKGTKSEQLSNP

PC-3 = experiment: Cytotoxicity against human PC-3 cells assessed as inhibition of cell growth measured after 48 hrs by MTT assay; assay type: functional, cell-based; settings: PC-3, 48 h
MCF7 [21] = experiment: Induction of cell cycle arrest in human MCF7 cells assessed as accumulation at G2/M phase by PI-staining based flow cytometry (reference value: 35.3%); assay type: functional
HCT-116 [22] = experiment: Induction of cell cycle arrest in human HCT-116 cells assessed as accumulation at G0/G1 phase by PI-staining based flow cytometry (reference value: 47%); assay type: functional
MCF7 [23] = experiment: Induction of apoptosis in human MCF7 cells assessed as fold increase in caspases-7 expression by ELISA assay; assay type: functional
HCT-116 [24] = experiment: Induction of cell cycle arrest in human HCT-116 cells assessed as accumulation at S phase by PI-staining based flow cytometry (reference value: 7.1%); assay type: functional
MCF7 [25] = experiment: Induction of apoptosis in human MCF7 cells assessed as fold increase in BAX expression by ELISA assay; assay type: functional
in vitro = settings: human, WI-38 cells
Description: Cytotoxicity against human WI-38 cells assessed as inhibition of cell growth measured after 48 hrs by MTT assay

IC50 (MCF7 [2]): 5.14 µM | IC50 (HeLa): 6.18 µM | IC50 (HepG2 [6]): 8.37 µM | IC50 (Histone deacetylase 8): 0.517 µM | IC50 (HCT-116 [16]): 3.16 µM | IC50 (Histone deacetylase 1): 0.281 µM | IC50 [19]: 0.258 µM | IC50 (Histone deacetylase 2): 0.834 µM | IC50 at 48 h (in vitro): 34.5 µM
SMILES: COc1ccc(/C=C2\SC(=O)N(CCNC(=O)Nc3c(C)n(C)n(-c4ccccc4)c3=O)C2=O)cc1
Activity (MCF7 [1]): 60.6% | Activity (HCT-116 [3]): 0% | fold change (FC) (HCT-116 [4]): 3.9 | fold change (FC) (HepG2 [5]): 13.13 | fold change (FC) (MCF7 [7]): 5.2 | Activity (HepG2 [8]): 0% | fold change (FC) (HCT-116 [9]): 3.7 | Activity (HepG2 [10]): 43.4% | fold change (FC) (HCT-116 [11]): 4.9 | fold change (FC) (HepG2 [12]): 5.2 | Activity (HCT-116 [13]): 39.5% | Activity (MCF7 [14]): 4.8% | Activity (HepG2 [15]): 50.6% | fold change (FC) (HepG2 [17]): 9.1 | Activity (MCF7 [18]): 31.7% | Activity (HepG2 [20]): 1.6% | IC50 (PC-3): 13.9 µM | Activity (MCF7 [21]): 0.2% | Activity (HCT-116 [22]): 55.2% | fold change (FC) (MCF7 [23]): 6.6 | Activity (HCT-116 [24]): 1.6% | fold change (FC) (MCF7 [25]): 7.013

IC50 (MCF7 [2]): 46.9 µM | IC50 (HeLa): 29.4 µM | IC50 (HepG2 [6]): 38.8 µM | IC50 (HCT-116 [16]): 36.3 µM | IC50 at 48 h (in vitro): 27.5 µM
SMILES: Cc1c(NC(=O)NCCN2C(=O)S/C(=C\c3ccc(Cl)cc3)C2=O)c(=O)n(-c2ccccc2)n1C
IC50 (PC-3): 40.1 µM

IC50 (MCF7 [2]): 58.1 µM | IC50 (HeLa): 72.6 µM | IC50 (HepG2 [6]): 52.3 µM | IC50 (HCT-116 [16]): 78.1 µM | IC50 at 48 h (in vitro): > 100 µM
SMILES: Cc1c(NC(=O)NCCN2C(=O)S/C(=C\c3ccc(Br)cc3)C2=O)c(=O)n(-c2ccccc2)n1C
IC50 (PC-3): > 100 µM

IC50 (MCF7 [2]): 82.4 µM | IC50 (HeLa): 77.2 µM | IC50 (HepG2 [6]): 84.3 µM | IC50 (HCT-116 [16]): 91.3 µM | IC50 at 48 h (in vitro): 43.8 µM
SMILES: Cc1c(NC(=O)CN2C(=O)S/C(=C\c3ccc([N+](=O)[O-])cc3)C2=O)c(=O)n(-c2ccccc2)n1C
IC50 (PC-3): > 100 µM

IC50 (MCF7 [2]): 75.6 µM | IC50 (HeLa): 64.8 µM | IC50 (HepG2 [6]): 68.5 µM | IC50 (HCT-116 [16]): 70.3 µM | IC50 at 48 h (in vitro): 52.9 µM
SMILES: COc1ccc(/C=C2\SC(=O)N(CC(=O)Nc3c(C)n(C)n(-c4ccccc4)c3=O)C2=O)cc1
IC50 (PC-3): 93.7 µM

IC50 (MCF7 [2]): 37.4 µM | IC50 (HeLa): 22.4 µM | IC50 (HepG2 [6]): 25.7 µM | IC50 (HCT-116 [16]): 32.7 µM | IC50 at 48 h (in vitro): 48.1 µM
SMILES: Cc1ccc(/C=C2\SC(=O)N(CCNC(=O)Nc3c(C)n(C)n(-c4ccccc4)c3=O)C2=O)cc1
IC50 (PC-3): 58.6 µM
